We go through 1 molecule from patent publication US20250241890A1, “1,4-DIUREAS AND 1,4-DITHIOUREAS AND USES THEREOF” (Purdue Research Foundation, priority 2024, published 2025).

One assay addresses T1, α-synuclein (α-syn) (Homo sapiens, UniProt P37840).
T1 construct: purchased rPeptide (Watkinsville, GA)
Briefly: Thioflavin T (ThT) fluorescence assay of α-syn fibril formation. The class given is biochemical. The settings on record: α-syn 2 μM final concentration, compounds at 100 μM, average of three replicates with SEM; read-out: % ThT intensity (100 μM), maximum ThT intensity in percentage. The procedure:
Chemical and peptide source. Dimethylsulfoxide (DMSO) and thioflavin-T (ThT) were purchased from Alfa Aesar (Ward Hill, MA). Recombinant α-synuclein (α-syn) was procured from rPeptide (WatKinsville, GA). The recombinant p-tau isoform 1N4R was prepared as published previously (Fortin et al. 2021, Sui et al. 2015, Liu et al. 2020). Concerning the preparation of tau 0N4R, a bacterial expression plasmid consisting of the vector pET30a carrying a cDNA encoding the human Tau 0N4R isoform was a kind gift of Dr. Benjamin Wolozin (Boston University). E. coli stock (Rosetta BL21 E. coli (CamR) containing pET30a [0N4R tau wt] (KanR)) was grown in LB medium supplemented with kanamycin (50 μg/mL) and chloramphenicol (50 μg/mL). Protein over-expression was induced by the addition of 1 mM IPTG for ˜18 hours at 37° C., and cells were pelleted by centrifugation at 6,000 g for 15 minutes at 4° C. The cells were resuspended in lysis buffer (10 mM Hepes, pH 7.4, 50 mM NaCl, 1 mM MgCl2, 1 mM PMSF, 1× PIC, and 0.5 mM DTT) and lysed by sonication at 30 seconds “On” and 1 minute “Off” at ˜30-45% power for ˜3-5 minutes. Lysate was centrifuged at 10,000 rpm for 10 minutes at 4° C., and supernatant was transferred with 7.8 ml (total) of 3M NaCl. The lysate was incubated for 10 minutes in 80° C. water bath, then cooled for 10 minutes in an ice bath. The lysate was centrifuged at 10,000 rpm at 4° C. for 10 minutes, and the supernatant was transferred to a new tube. The supernatant was dialyzed overnight against cation exchange buffer (50 mM MES, […], 1 mM DTT, pH 6.0). The dialysate was loaded onto a HiPrep SP HP column, and proteins were eluted with a linear gradient ranging from 50 mM to 1 M NaCl. General Characterizations. ^1H and ^13C {1H} NMR spectra were recorded using a 500 MHz Bruker instrument working at a frequency of 500 MHz for ^1H and at 126 MHz for ^13C. Chemical shifts are reported in ppm using residual solvent resonances as internal reference (δ 2.50 and δ 39.51 for ^1H and ^13C in DMSO-d6, respectively). ^1H NMR data are reported as follows. b=broad, s=singlet, d=doublet, t=triplet, q=quartet, and m=multiplet. Coupling constants are given in hertz. The purity of all compounds and synthetic intermediates was judged to be 95% or better based on ^1H NMR. IR measurements were performed in a Nicolet FTIR as thin films in the Purdue Drug Discovery facility. High-resolution mass spectrometry analyses were conducted at the MSU Mass Spectrometry facility. Thioflavin fluorescence assays. […] The recombinant α-syn obtained from rPeptide has been validated with proper quality control to confirm the monomeric state of the protein. Kinetics of fibril formation have been performed using ThT as published previously.^6, 12, 13, 24 The fluorescence emission experiments were performed with the excitation and emission wavelengths set at 440 and 485 nm, respectively, with a Synergy HT multi-mode microplate reader (BioTek, Winooski, VT). Samples were measured in three replicates. Experiments were repeated three times using different α-syn stock solutions. For each time point, arbitrary units of fluorescence were calculated from the mean values normalized against the maximum value. The percentage of fluorescence intensity at the plateau phase in Table 1 was expressed as mean #SEM. Concerning the dose response curve depicted in FIG. 2, the data were plotted using GraphPad Prism. Photo-induced Cross-linking of Unmodified Proteins (PICUP) Assay. To induce oligomerization by cross-linking, α-syn (from Rpeptide, LLC) was diluted in 10 mM phosphate buffer (pH 7.4) to reach a final concentration of 50 μM. Different compounds were added to the protein solution at a final concentration of 50 μM, resulting in a molar ratio of 1:1. PICUP assays were performed with the following controls: samples without light exposition, without Ru(bpy) or ammonium persulfate, and without compound (i.e., 0.125% DMSO). […]

The target of a further assay is T2, tau isoform 0N4R (Homo sapiens, UniProt P10636).
T2 construct: made in house; host or cells: Rosetta BL21 E. coli
T2 sequence (P10636 1-383 isoform P10636-6): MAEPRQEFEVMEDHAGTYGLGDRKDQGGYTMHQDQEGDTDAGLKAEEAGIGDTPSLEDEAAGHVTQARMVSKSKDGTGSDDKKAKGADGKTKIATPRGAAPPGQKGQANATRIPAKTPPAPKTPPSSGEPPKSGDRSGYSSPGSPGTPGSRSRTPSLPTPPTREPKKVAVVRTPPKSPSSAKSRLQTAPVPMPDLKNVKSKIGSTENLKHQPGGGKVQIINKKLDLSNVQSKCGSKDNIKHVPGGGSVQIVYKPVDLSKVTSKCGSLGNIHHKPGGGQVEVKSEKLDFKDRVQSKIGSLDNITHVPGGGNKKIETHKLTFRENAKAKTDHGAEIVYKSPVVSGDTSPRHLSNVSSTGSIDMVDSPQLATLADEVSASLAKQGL
Briefly: PICUP assay of tau 0N4R oligomer formation. The settings on record: tau 10 μM, compound 50 μM (molar ratio 1:5). The class given is biochemical. The procedure:
FIG. 5. […] Compounds 1, 2, and 8 were selected for their α-syn anti-oligomerization activity. Compound 7 was used as di-urea counterpart of compound 8, as compound 1 is the di-urea counterpart of compound 2, a dithiourea derivative. Tau (10 μM) was cross-linked (PICUP assay) with different concentrations of the di-substituted aminoindolyl derivatives at 50 μM (molar ratio 1:5).
Chemical and peptide source. Dimethylsulfoxide (DMSO) and thioflavin-T (ThT) were purchased from Alfa Aesar (Ward Hill, MA). Recombinant α-synuclein (α-syn) was procured from rPeptide (WatKinsville, GA). The recombinant p-tau isoform 1N4R was prepared as published previously (Fortin et al. 2021, Sui et al. 2015, Liu et al. 2020). Concerning the preparation of tau 0N4R, a bacterial expression plasmid consisting of the vector pET30a carrying a cDNA encoding the human Tau 0N4R isoform was a kind gift of Dr. Benjamin Wolozin (Boston University). E. coli stock (Rosetta BL21 E. coli (CamR) containing pET30a [0N4R tau wt] (KanR)) was grown in LB medium supplemented with kanamycin (50 μg/mL) and chloramphenicol (50 μg/mL). […] General Characterizations. ^1H and ^13C {1H} NMR spectra were recorded using a 500 MHz Bruker instrument working at a frequency of 500 MHz for ^1H and at 126 MHz for ^13C. […] Thioflavin fluorescence assays. Thioflavin fluorescence assays were used to monitor fibril formation of commercial recombinant α-syn at a final concentration of 2 μM and treated with control DMSO and different compounds. […] Kinetics of fibril formation have been performed using ThT as published previously.^6, 12, 13, 24 The fluorescence emission experiments were performed with the excitation and emission wavelengths set at 440 and 485 nm, respectively, with a Synergy HT multi-mode microplate reader (BioTek, Winooski, VT). Samples were measured in three replicates. […] For each time point, arbitrary units of fluorescence were calculated from the mean values normalized against the maximum value. The percentage of fluorescence intensity at the plateau phase in Table 1 was expressed as mean #SEM. […]

Each structure is given as a SMILES string.

For `O=C(Nc1ccc(NC(=O)Nc2cccc3cc[nH]c23)cc1)Nc1cccc2cc[nH]c12` [Compound 7, 3-(1H-indol-7-yl)-1-(4-{[(1H-indol-7-yl)carbamoyl]amino}phenyl)urea], the remaining activity at 100 µM at α-synuclein (α-syn) turned out to be 52.4%. Moreover, the “effect on tau 0N4R oligomer formation by PICUP” value at tau isoform 0N4R is “None of these compounds were able to reduce the tau 0N4R oligomer formation”.
